Test results reported in patent publication US9212182B2, “Bicyclic sulfonamide compounds as sodium channel inhibitors” (AMGEN INC., priority 2013, dated 2015).

Each compound was assayed against Nav 1.7 (Homo sapiens (Human), UniProt Q15858) (assay: in-vitro Nav 1.7 PX (IC50)). Settings: not given.
Format: cell-based

Chain of Nav 1.7 (Q15858 whole entry): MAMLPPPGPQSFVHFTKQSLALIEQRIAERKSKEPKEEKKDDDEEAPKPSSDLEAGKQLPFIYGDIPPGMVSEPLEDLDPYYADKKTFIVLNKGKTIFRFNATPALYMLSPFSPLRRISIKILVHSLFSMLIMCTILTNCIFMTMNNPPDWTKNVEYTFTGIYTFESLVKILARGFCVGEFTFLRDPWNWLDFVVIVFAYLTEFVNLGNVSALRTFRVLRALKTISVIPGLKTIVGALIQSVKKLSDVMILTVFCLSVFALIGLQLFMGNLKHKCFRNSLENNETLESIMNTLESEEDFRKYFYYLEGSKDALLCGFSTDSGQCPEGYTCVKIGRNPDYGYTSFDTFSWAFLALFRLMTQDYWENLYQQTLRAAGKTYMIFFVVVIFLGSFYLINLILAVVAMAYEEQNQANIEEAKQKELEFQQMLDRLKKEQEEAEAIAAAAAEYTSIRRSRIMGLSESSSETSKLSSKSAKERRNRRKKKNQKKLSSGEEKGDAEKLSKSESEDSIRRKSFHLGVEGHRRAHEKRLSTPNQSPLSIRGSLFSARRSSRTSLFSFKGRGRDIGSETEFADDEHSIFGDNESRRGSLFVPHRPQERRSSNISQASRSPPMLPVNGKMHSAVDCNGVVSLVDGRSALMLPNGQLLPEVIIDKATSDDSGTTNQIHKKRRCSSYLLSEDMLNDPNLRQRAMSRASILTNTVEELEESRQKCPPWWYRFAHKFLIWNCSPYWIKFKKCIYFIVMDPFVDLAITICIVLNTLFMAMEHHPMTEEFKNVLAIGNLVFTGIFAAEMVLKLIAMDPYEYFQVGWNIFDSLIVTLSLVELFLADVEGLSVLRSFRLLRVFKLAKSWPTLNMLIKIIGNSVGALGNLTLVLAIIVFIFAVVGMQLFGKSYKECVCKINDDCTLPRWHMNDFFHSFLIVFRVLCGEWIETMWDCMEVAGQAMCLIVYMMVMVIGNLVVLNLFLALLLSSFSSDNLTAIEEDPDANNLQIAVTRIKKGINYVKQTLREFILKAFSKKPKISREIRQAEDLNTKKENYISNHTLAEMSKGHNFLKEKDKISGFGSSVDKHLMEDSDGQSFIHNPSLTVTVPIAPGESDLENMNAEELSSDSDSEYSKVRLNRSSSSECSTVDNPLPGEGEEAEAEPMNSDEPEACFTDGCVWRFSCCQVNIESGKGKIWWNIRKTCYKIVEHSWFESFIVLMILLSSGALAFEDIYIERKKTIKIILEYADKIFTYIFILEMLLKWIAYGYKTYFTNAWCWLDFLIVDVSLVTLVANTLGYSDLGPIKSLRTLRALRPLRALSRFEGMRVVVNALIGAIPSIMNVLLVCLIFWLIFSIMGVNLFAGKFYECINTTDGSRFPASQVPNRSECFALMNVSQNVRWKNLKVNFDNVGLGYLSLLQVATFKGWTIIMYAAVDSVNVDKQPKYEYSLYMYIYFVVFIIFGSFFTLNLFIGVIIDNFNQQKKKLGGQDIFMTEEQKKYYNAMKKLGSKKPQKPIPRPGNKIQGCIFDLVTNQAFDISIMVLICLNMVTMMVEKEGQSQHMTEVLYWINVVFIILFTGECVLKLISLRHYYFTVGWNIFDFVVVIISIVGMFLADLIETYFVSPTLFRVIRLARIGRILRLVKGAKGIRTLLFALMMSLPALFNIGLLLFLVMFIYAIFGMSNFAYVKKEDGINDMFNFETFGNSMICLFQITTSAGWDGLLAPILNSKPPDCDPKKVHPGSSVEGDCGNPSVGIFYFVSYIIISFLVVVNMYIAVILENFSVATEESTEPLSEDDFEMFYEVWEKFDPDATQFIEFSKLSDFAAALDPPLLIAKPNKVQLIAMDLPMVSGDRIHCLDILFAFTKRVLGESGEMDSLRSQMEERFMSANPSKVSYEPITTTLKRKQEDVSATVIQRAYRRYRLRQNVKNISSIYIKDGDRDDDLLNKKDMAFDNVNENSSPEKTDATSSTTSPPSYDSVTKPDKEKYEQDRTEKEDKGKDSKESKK

IC50 [nM] | Compound
75 | COc1cc(-c2cccc(C(F)(F)F)c2)c(F)cc1-n1c(=O)ccc2cc(S(=O)(=O)Nc3cccc(F)n3)ccc21 (atropisomer, axis not shown; (P)) [Example 1209, (P)-1-(2-fluoro-5-methoxy-3′-(trifluoromethyl)-4-biphenylyl)-N-(6-fluoro-2-pyridinyl)-2-oxo-1,2-dihydro-6-quinolinesulfonamide]
124 | COc1nc(C#CC2CCCC2)c(Cl)cc1-n1c(=O)ccc2cc(S(=O)(=O)Nc3cccnn3)ccc21 (atropisomer, axis not shown; (P)) [Example 1240, (P)-1-(5-chloro-6-(cyclopentylethynyl)-2-methoxy-3-pyridinyl)-2-oxo-N-3-pyridazinyl-1,2-dihydro-6-quinolinesulfonamide]

Same assay, conditions: in-vitro Nav 1.7 PX data

IC50 [nM] | Compound
47 | COc1cc(-c2cc(Cl)cnc2OC)c(F)cc1-n1c(=O)ccc2cc(S(=O)(=O)Nc3cccnn3)ccc21 [Example 775, 1-(4-(5-chloro-2-methoxy-3-pyridinyl)-5-fluoro-2-methoxyphenyl)-2-oxo-N-3-pyridazinyl-1,2-dihydro-6-quinolinesulfonamide]
132 | COc1cc(-c2ccc(C#N)cc2)c(F)cc1-n1c(=O)ccc2cc(S(=O)(=O)Nc3ccon3)ccc21 [Example 754, 1-(4′-cyano-2-fluoro-5-methoxy-4-biphenylyl)-N-3-isoxazolyl-2-oxo-1,2-dihydro-6-quinolinesulfonamide]
12 | COc1cc(-c2cc(Cl)ccc2F)c(F)cc1-n1c(=O)ccc2cc(S(=O)(=O)Nc3ccon3)ccc21 [Example 707, 1-(5′-chloro-2,2′-difluoro-5-methoxy-4-biphenylyl)-N-3-isoxazolyl-2-oxo-1,2-dihydro-6-quinolinesulfonamide]
57 | COc1cc(-c2cccc(OC)c2C)c(C)cc1-n1c(=O)ccc2cc(S(=O)(=O)Nc3ncccn3)ccc21 [Example 968, 1-(3′,5-dimethoxy-2,2′-dimethyl-4-biphenylyl)-2-oxo-N-2-pyrimidinyl-1,2-dihydro-6-quinolinesulfonamide]
47 | COc1cc(-c2ccc(F)c(F)c2)c(F)cc1-n1c(=O)ccc2cc(S(=O)(=O)Nc3cc(C)ncn3)ccc21 [Example 938, N-(6-methyl-4-pyrimidinyl)-2-oxo-1-(2,3′,4′-trifluoro-5-methoxy-4-biphenylyl)-1,2-dihydro-6-quinolinesulfonamide]
35 | COc1cc(-c2cccc(C)c2)c(F)cc1-n1c(=O)ccc2cc(S(=O)(=O)Nc3ncon3)ccc21 [Example 1114, 1-(2-fluoro-5-methoxy-3′-methyl-4-biphenylyl)-N-1,2,4-oxadiazol-3-yl-2-oxo-1,2-dihydro-6-quinolinesulfonamide]
22 | COc1ccc(-c2cccc(Cl)c2)cc1-n1c(=O)ccc2cc(S(=O)(=O)Nc3ccon3)ccc21 [Example 852, 1-(3′-chloro-4-methoxy-3-biphenylyl)-N-3-isoxazolyl-2-oxo-1,2-dihydro-6-quinolinesulfonamide]
37 | COc1cc(-c2cc(F)cc(Cl)c2)c(F)cc1-n1c(=O)ccc2cc(S(=O)(=O)Nc3ccsn3)ccc21 [Example 921, 1-(3′-chloro-2,5′-difluoro-5-methoxy-4-biphenylyl)-N-3-isothiazolyl-2-oxo-1,2-dihydro-6-quinolinesulfonamide]
18 | COc1cc(-c2cccc(C(F)(F)F)c2)c(F)cc1-n1c(=O)ccc2cc(S(=O)(=O)Nc3cccnn3)ccc21 [Example 820, 1-(2-fluoro-5-methoxy-3′-(trifluoromethyl)-4-biphenylyl)-2-oxo-N-3-pyridazinyl-1,2-dihydro-6-quinolinesulfonamide]

Same assay, conditions: in-vitro PatchXpress (PX)

IC50 [nM] | Compound
677 | COc1cc(-c2ccc(Cl)c(C)c2)c(Cl)cc1-n1c(=O)ccc2cc(S(=O)(=O)Nc3ccncn3)ccc21 (atropisomer, axis not shown; (M)) [Example 368, (M)-1-(2,4′-dichloro-5-methoxy-3′-methyl-4-biphenylyl)-2-oxo-N-4-pyrimidinyl-1,2-dihydro-6-quinolinesulfonamide]
